Activity calls are given as the source filed them. The calls are words filed in the database; no cut-off is given here.
What was measured:
KB = experiment: Cytotoxicity against human KB cells; format: functional, cell-based
P388 = experiment: In vivo antitumor activity against mouse P388 cells at 1 mg/kg relative to control; format: functional

SMILES: CC[C@]12C[C@H]3CN(CCc4c([nH]c5ccccc45)[C@@](C(=O)OC)(c4cc5c(cc4OC)N(C)[C@H]4[C@@](O)(C(=O)OC)[C@H](OC(C)=O)[C@]6(CC)C=CCN7CC[C@]54[C@@H]76)[C@@H]3O1)C2 [CATHARANTHAMINE]
- Activity (KB): Active
- T/C (P388): 176%

From ChEMBL document CHEMBL1151362, “Catharanthus alkaloids. XXXIV. Catharanthamine, a new antitumor bisindole alkaloid from Catharanthus roseus” (1981)
